The values that follow come from patent US12497365B2, “4-pyridinyl formamide compound or derivative thereof, preparation method therefor, herbicidal composition and use thereof” (Qingdao Kingagroot Chemical Compound Co., Ltd., priority 2019, dated 2025).

What all share (assay): Weeding effect in post-emergence stage
What all share (format): in vivo
Conditions in all cases: active ingredient 2000 g/ha, 3 weeks after application, fresh weight control rate

In one assay the test system is Abutilon theophrasti. The source says:
(§1) The activity level criteria for plant damage (i.e., growth control rate) are as follows:
(§2) The above growth control rates are fresh weight control rates.
(§3) Experiment on weeding effect in post-emergence stage: monocotyledonous and dicotyledonous weed seeds and major crop seeds (wheat, corn, rice, soybean, cotton, oilseed rape, millet, sorghum) were placed in plastic pots filled with soil, then covered with 0.5-2 cm of soil, allowed to grow in a good greenhouse environment. After 2 weeks of sowing, the test plants were treated in the 2-3 leaf stage. The tested compounds of the present invention were respectively dissolved in acetone at the dosage of 2000, 1000, 500, 250, 125 g/ha, then added with Tween 80 and 1.5 liter/ha of emulsifiable concentrate of methyl oleate as synergist, diluted with a certain amount of water to obtain a solution with a certain concentration, and sprayed with a spray tower onto the plants. After the application, the plants were cultured for 3 weeks in the greenhouse, and then the experimental results were listed in Table 1.

Assay [1] has as its system Amaranthus retroflexus L.
Text: as §1, §2, §3

A further assay deals with Chenopodium album.
Text: as §1, §2, §3

Another assay concerns Descurainia sophia.
Text: as §1, §2, §3

Molecules are shown by their SMILES.

`Cn1nnnc1NC(=O)c1ccnc(-c2ccccc2Cl)c1Cl` [Compound 1-18]: in the assay on Abutilon theophrasti, the “Weeding effect, activity level (growth control rate), Abutilon theophrasti” value (“Weeding effect … Abutilon theophrasti” below) is 5 (Level 5: growth control rate is above 85%). In addition, the “Weeding effect, activity level (growth control rate), Amaranthus retroflexus L.” value (“Weeding effect … Amaranthus retroflexus L.” for short) in assay [1] was 5 (Level 5: growth control rate is above 85%). The “Weeding effect, activity level (growth control rate), Chenopodium album” value (shortened to “Weeding effect … Chenopodium album”) with Chenopodium album is 5 (Level 5: growth control rate is above 85%). The “Weeding effect, activity level (growth control rate), Descurainia sophia” value (“Weeding effect … Descurainia sophia” below) with Descurainia sophia is given as 5 (Level 5: growth control rate is above 85%).
Consider `Cn1nnnc1NC(=O)c1ccnc(-c2cccc(Cl)c2)c1Cl` [Compound 1-19], for which the “Weeding effect … Abutilon theophrasti” value with Abutilon theophrasti was 5 (Level 5: growth control rate is above 85%). For the same compound, the “Weeding effect … Amaranthus retroflexus L.” value in assay [1] was 5 (Level 5: growth control rate is above 85%). Besides, the “Weeding effect … Chenopodium album” value in the assay with Chenopodium album is on record as 5 (Level 5: growth control rate is above 85%). In the assay on Descurainia sophia, the “Weeding effect … Descurainia sophia” value is 5 (Level 5: growth control rate is above 85%).
`Cn1nnnc1NC(=O)c1ccnc(-c2ccc(Cl)cc2)c1Cl` [Compound 1-20]: the “Weeding effect … Abutilon theophrasti” value with Abutilon theophrasti was 5 (Level 5: growth control rate is above 85%). Further, the “Weeding effect … Amaranthus retroflexus L.” value in assay [1] is 5 (Level 5: growth control rate is above 85%). Besides, the “Weeding effect … Chenopodium album” value in the assay with Chenopodium album is on record as 5 (Level 5: growth control rate is above 85%). In addition, in the assay on Descurainia sophia, the “Weeding effect … Descurainia sophia” value was 5 (Level 5: growth control rate is above 85%).
For `Cn1nnnc1NC(=O)c1ccnc(-c2cccc(Br)c2)c1Cl` [Compound 1-21], the “Weeding effect … Abutilon theophrasti” value in the assay with Abutilon theophrasti was 5 (Level 5: growth control rate is above 85%). For the same compound, in assay [1], the “Weeding effect … Amaranthus retroflexus L.” value was 5 (Level 5: growth control rate is above 85%). Besides, the “Weeding effect … Chenopodium album” value in the assay with Chenopodium album is 5 (Level 5: growth control rate is above 85%). Also, the “Weeding effect … Descurainia sophia” value with Descurainia sophia was 5 (Level 5: growth control rate is above 85%).
In the case of `Cn1nnnc1NC(=O)c1ccnc(-c2ccc(Br)cc2)c1Cl` [Compound 1-22], the “Weeding effect … Abutilon theophrasti” value in the assay on Abutilon theophrasti is given as 5 (Level 5: growth control rate is above 85%). For the same compound, the “Weeding effect … Amaranthus retroflexus L.” value in assay [1] is 5 (Level 5: growth control rate is above 85%). Moreover, the “Weeding effect … Chenopodium album” value in the assay with Chenopodium album is listed as 5 (Level 5: growth control rate is above 85%). In addition, in the assay on Descurainia sophia, the “Weeding effect … Descurainia sophia” value is recorded as 5 (Level 5: growth control rate is above 85%).
Turning to `Cn1nnnc1NC(=O)c1ccnc(-c2ccccc2CBr)c1Cl` [Compound 1-23], in the assay with Abutilon theophrasti, the “Weeding effect … Abutilon theophrasti” value was 5 (Level 5: growth control rate is above 85%). The “Weeding effect … Amaranthus retroflexus L.” value in assay [1] is 5 (Level 5: growth control rate is above 85%). Moreover, the “Weeding effect … Chenopodium album” value in the assay with Chenopodium album is reported as 5 (Level 5: growth control rate is above 85%). In addition, the “Weeding effect … Descurainia sophia” value in the assay with Descurainia sophia is on record as 5 (Level 5: growth control rate is above 85%).
Turning to `Cn1nnnc1NC(=O)c1ccnc(-c2ccc(CBr)cc2)c1Cl` [Compound 1-24], the “Weeding effect … Abutilon theophrasti” value in the assay on Abutilon theophrasti is given as 5 (Level 5: growth control rate is above 85%). Further, the “Weeding effect … Amaranthus retroflexus L.” value in assay [1] is listed as 5 (Level 5: growth control rate is above 85%). Besides, the “Weeding effect … Chenopodium album” value in the assay with Chenopodium album is 5 (Level 5: growth control rate is above 85%). The “Weeding effect … Descurainia sophia” value with Descurainia sophia was 5 (Level 5: growth control rate is above 85%).
Consider `Cn1nnnc1NC(=O)c1ccnc(-c2ccc(I)cc2)c1Cl` [Compound 1-25], for which the “Weeding effect … Abutilon theophrasti” value with Abutilon theophrasti is listed as 5 (Level 5: growth control rate is above 85%). The “Weeding effect … Amaranthus retroflexus L.” value in assay [1] is listed as 5 (Level 5: growth control rate is above 85%). Also, the “Weeding effect … Chenopodium album” value in the assay with Chenopodium album is 5 (Level 5: growth control rate is above 85%). Besides, in the assay with Descurainia sophia, the “Weeding effect … Descurainia sophia” value is recorded as 5 (Level 5: growth control rate is above 85%).
For `Cn1nnnc1NC(=O)c1ccnc(-c2cccc(C(F)(F)F)c2)c1Cl` [Compound 1-26], the “Weeding effect … Abutilon theophrasti” value in the assay on Abutilon theophrasti is given as 5 (Level 5: growth control rate is above 85%). Further, the “Weeding effect … Amaranthus retroflexus L.” value in assay [1] is 5 (Level 5: growth control rate is above 85%). Besides, in the assay on Chenopodium album, the “Weeding effect … Chenopodium album” value is 5 (Level 5: growth control rate is above 85%). In addition, in the assay on Descurainia sophia, the “Weeding effect … Descurainia sophia” value is recorded as 5 (Level 5: growth control rate is above 85%).
Consider `Cn1nnnc1NC(=O)c1ccnc(-c2ccc(C(F)(F)F)cc2)c1Cl` [Compound 1-27], for which the “Weeding effect … Abutilon theophrasti” value in the assay on Abutilon theophrasti is recorded as 5 (Level 5: growth control rate is above 85%). Further, the “Weeding effect … Amaranthus retroflexus L.” value in assay [1] is 5 (Level 5: growth control rate is above 85%). In the assay on Chenopodium album, the “Weeding effect … Chenopodium album” value is listed as 5 (Level 5: growth control rate is above 85%). Besides, in the assay on Descurainia sophia, the “Weeding effect … Descurainia sophia” value is 5 (Level 5: growth control rate is above 85%).
For the compound `COc1ccccc1-c1nccc(C(=O)Nc2nnnn2C)c1Cl` [Compound 1-28], the “Weeding effect … Abutilon theophrasti” value in the assay on Abutilon theophrasti was 5 (Level 5: growth control rate is above 85%). The “Weeding effect … Amaranthus retroflexus L.” value in assay [1] is 5 (Level 5: growth control rate is above 85%). For the same compound, the “Weeding effect … Chenopodium album” value in the assay on Chenopodium album is 5 (Level 5: growth control rate is above 85%). Also, the “Weeding effect … Descurainia sophia” value in the assay on Descurainia sophia is on record as 5 (Level 5: growth control rate is above 85%).
Turning to `COc1cccc(-c2nccc(C(=O)Nc3nnnn3C)c2Cl)c1` [Compound 1-29], the “Weeding effect … Abutilon theophrasti” value with Abutilon theophrasti is reported as 5 (Level 5: growth control rate is above 85%). The “Weeding effect … Amaranthus retroflexus L.” value in assay [1] was 5 (Level 5: growth control rate is above 85%). Further, in the assay on Chenopodium album, the “Weeding effect … Chenopodium album” value is 5 (Level 5: growth control rate is above 85%). The “Weeding effect … Descurainia sophia” value in the assay on Descurainia sophia was 5 (Level 5: growth control rate is above 85%).
`COc1ccc(-c2nccc(C(=O)Nc3nnnn3C)c2Cl)cc1` [Compound 1-30]: the “Weeding effect … Abutilon theophrasti” value with Abutilon theophrasti is given as 5 (Level 5: growth control rate is above 85%). Moreover, the “Weeding effect … Amaranthus retroflexus L.” value in assay [1] is recorded as 5 (Level 5: growth control rate is above 85%). Moreover, the “Weeding effect … Chenopodium album” value in the assay with Chenopodium album is given as 5 (Level 5: growth control rate is above 85%). Moreover, the “Weeding effect … Descurainia sophia” value in the assay with Descurainia sophia was 5 (Level 5: growth control rate is above 85%).
On to `Cn1nnnc1NC(=O)c1ccnc(-c2ccccc2OC(F)(F)F)c1Cl` [Compound 1-31], for which, in the assay with Abutilon theophrasti, the “Weeding effect … Abutilon theophrasti” value is listed as 5 (Level 5: growth control rate is above 85%). Besides, in assay [1], the “Weeding effect … Amaranthus retroflexus L.” value was 5 (Level 5: growth control rate is above 85%). The “Weeding effect … Chenopodium album” value in the assay with Chenopodium album is recorded as 5 (Level 5: growth control rate is above 85%). Moreover, in the assay on Descurainia sophia, the “Weeding effect … Descurainia sophia” value was 5 (Level 5: growth control rate is above 85%).
